Source: article PMC10408683, “Dual Blockade of EP2 and EP4 Signaling is Required for Optimal Immune Activation and Antitumor Activity Against Prostaglandin-Expressing Tumors” (Cancer Research Communications, 2023)

Legend:
Assay type in all cases: cell-based
EP2 = biological target: T1, EP2 (Homo sapiens, UniProt P43116); test: calcium flux antagonism of PGE2 in HEK293 cells stably expressing EP2 coupled through a promiscuous G protein
T1 construct: gene PTGER2

EP4 [1] = biological target: T2, EP4 (Homo sapiens, UniProt P35408); test: calcium flux antagonism of PGE2 in HEK293 cells stably expressing EP4 coupled through a promiscuous G protein
T2 construct: gene PTGER4
T2 sequence (P35408 whole entry): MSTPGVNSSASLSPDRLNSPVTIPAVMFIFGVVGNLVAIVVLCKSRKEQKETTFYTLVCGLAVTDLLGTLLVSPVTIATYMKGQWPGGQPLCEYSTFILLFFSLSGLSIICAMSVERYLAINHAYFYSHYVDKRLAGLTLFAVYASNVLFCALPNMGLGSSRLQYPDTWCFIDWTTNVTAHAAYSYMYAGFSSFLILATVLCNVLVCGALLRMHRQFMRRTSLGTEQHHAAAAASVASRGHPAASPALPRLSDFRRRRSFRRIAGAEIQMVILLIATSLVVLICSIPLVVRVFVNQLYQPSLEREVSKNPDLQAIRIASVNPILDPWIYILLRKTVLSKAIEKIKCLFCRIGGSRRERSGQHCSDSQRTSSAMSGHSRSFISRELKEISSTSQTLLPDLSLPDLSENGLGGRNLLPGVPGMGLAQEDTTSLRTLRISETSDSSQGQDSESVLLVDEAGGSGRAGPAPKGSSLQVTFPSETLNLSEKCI

EP4 [2] = biological target: T2, EP4; test: calcium flux assay in HEK293-based cells stably expressing human EP4

T1 sequence (P43116 whole entry): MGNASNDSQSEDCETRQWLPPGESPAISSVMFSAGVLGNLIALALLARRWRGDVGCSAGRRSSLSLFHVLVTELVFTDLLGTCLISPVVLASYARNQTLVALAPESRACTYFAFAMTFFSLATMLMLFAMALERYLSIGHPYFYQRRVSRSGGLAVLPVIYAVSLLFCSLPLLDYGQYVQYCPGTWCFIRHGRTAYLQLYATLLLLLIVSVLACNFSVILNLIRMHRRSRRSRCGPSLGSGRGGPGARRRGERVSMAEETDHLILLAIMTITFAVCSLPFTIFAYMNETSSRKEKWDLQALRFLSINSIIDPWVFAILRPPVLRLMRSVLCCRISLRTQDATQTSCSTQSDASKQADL

Row | IC50 (EP2) [nM] | IC50 (EP4 [1]) [nM] | IC50 (EP4 [2]) [nM] | Substance
1 | 17.2 | 3.24 | – | TPST-1495
2 | – | – | 0.4 | TPST-7131
